Measured values as given in ChEMBL document CHEMBL4840363, “Genome-Guided Discovery of Highly Oxygenated Aromatic Polyketides, Saccharothrixins D-M, from the Rare Marine Actinomycete Saccharothrix sp. D09” (J Nat Prod, 2021).
Values after ≈ are worked out from the molar mass of the structure shown.

Legend:
HCT-116 = assay: Cytotoxicity against human HCT-116 cells assessed as reduction in cell viability by MTT assay; type: functional, cell-based
Helicobacter pylori [1] = assay: Antibacterial activity against Helicobacter pyroli 159 assessed as inhibition of bacterial growth incubated for 48 hrs; type: functional
A549 = assay: Cytotoxicity against human A549 cells assessed as reduction in cell viability by MTT assay; type: functional, cell-based
MCF7 = assay: Cytotoxicity against human MCF7 cells assessed as reduction in cell viability by MTT assay; type: functional, cell-based
HepG2 = assay: Cytotoxicity against human HepG2 cells assessed as reduction in cell viability by MTT assay; type: functional, cell-based
RAW264.7 = assay: Antiinflammatory activity against mouse RAW264.7 cells assessed as inhibition of LPS induced NO production preincubated for 30 mins followed by LPS addition measured after 48 hrs by griess reagent based assay; type: functional, cell-based
Staphylococcus aureus = assay: Antibacterial activity against Staphylococcus aureus ATCC25923 assessed as inhibition of bacterial growth incubated for 48 hrs; type: functional
Helicobacter pylori [2] = assay: Antibacterial activity against Helicobacter pyroli G27 assessed as inhibition of bacterial growth incubated for 48 hrs; type: functional

| SMILES | IC50 (HCT-116) [µM] | MIC (Helicobacter pylori [1]) [µg/mL] | IC50 (A549) [µM] | IC50 (MCF7) [µM] | IC50 (HepG2) [µM] | IC50 (RAW264.7) [µM] | MIC (Staphylococcus aureus) [µg/mL] | MIC (Helicobacter pylori [2]) [µg/mL] |
| --- | --- | --- | --- | --- | --- | --- | --- | --- |
| COc1cccc2c1[C@H](O)[C@]13C=C[C@]4(O)CC(C)=CC(=O)[C@@H]4[C@]1(O3)[C@H]2O | > 20 | 32 (≈ 89.8 µM) | > 20 | > 20 | > 20 | – | – | – |
| COc1cccc2c1[C@H](O)[C@]13C=C[C@]4(O)CC(C)=CC(=O)[C@@H]4[C@]1(O3)C2=O | > 20 | 32 (≈ 90.3 µM) | > 20 | > 20 | > 20 | 28 | – | – |
| Cc1cc(O[C@H]2O[C@@H](C)[C@H](O)[C@@H](O)[C@H]2O)c2c3c(ccc2c1)C(=O)c1c(O)cccc1[C@@H]3O | > 20 | 16 (≈ 35.4 µM) | > 20 | > 20 | > 20 | – | 16 (≈ 35.4 µM) | 16 (≈ 35.4 µM) |
